From patent publication US12410472B2, “Method for evaluating the eye irritation potential of chemicals” (IMMUNOSEARCH, priority 2016, dated 2025)
Structures can show the parent of a compound that is named as a salt. Where two headings read alike, the source gives them in different places.

What was measured:
[1] = system: reconstructed human corneal epithelium model (SkinEthic™ HCE)
Text: The reconstructed human corneal epithelium model, (SkinEthic™ HCE) was purchased from Episkin in Lyon. The model consists of immortalized human corneal epithelial cells grown in a defined medium at the air-liquid interface. The tissue structure obtained is a multi-layer epithelium similar to the natural tissue structure of the human cornea, comprising 5-7 layers with a surface area of 0.5 cm^2.
Polyhedral cells and wing cells are also present. The tissue also comprises specific ultrastructures such as intermediate filaments, mature hemidesmosomes and desmosomes. […] The tissues are shipped on a semi-solid layer of agarose culture medium. Upon receipt, the tissues are transferred to maintenance medium (1 ml/well) in 6-well plates and incubated in a climatic chamber at 37° C., 5% CO2. The tissues are used 24 hours later.
The procedure for applying solid (powdered) products to the tissues was optimized as follows. First, the products are reduced to the finest possible powder with a mortar. The chemicals are tested at a single dose. In summary, the tissue surface is moistened by adding 20 μl of PBS at 37° C. and incubation for 10 min at 37° C./5% CO2. The corneal epithelia are then treated topically with 30±2 mg (representing 60 mg/cm2) and incubated for 30 min at room temperature. The tissues are then washed with sterile PBS (2×25 ml) at 37° C. PBS is applied to the edge of the insert (not directly on the tissue) to create a gentle vortex that removes the chemical. The tissues on their inserts are then “embedded” in 5 ml of maintenance medium at room temperature for 30 minutes in order to remove as much as possible of the product remaining on the tissue surface. The medium is then removed by gently tapping the insert on absorbent paper, and 50 μl of maintenance medium at 37° C. is added. The inserts are then incubated for 6 h at 37° C./5% CO2.
In summary, corneal tissues are recovered with forceps and placed in tubes for rapid freezing in liquid nitrogen. The RNA is then extracted by the QIAzol technique (Qiagen, Courtaboeuf, France) with an “RNeasy Mini Kit” according to the manufacturer's instructions. In summary, the tissues are placed in 1 ml of QIAzol and homogenized using the TissueLyser II (Qiagen, Courtaboeuf, France) with 2 steel beads. After centrifugation, the supernatant is collected and 0.2 ml of bromochloro propane (Sigma, France) is added, then the whole is vigorously mixed. The homogenate is centrifuged at 12,000 g for 15 min at 4° C. The upper phase (aqueous phase) is added to 600 μl of 70% ethanol and immediately mixed by pipetting. The mixture is transferred to an RNeasy spin column placed on a 2 ml collection tube and the RNA is collected according to the manufacturer's instructions (Qiagen, Courtaboeuf, France).
In summary, the transcription of total RNA is performed with 1 μg of total RNA in a final volume of 20 μl using “Random Primers” (Invitrogen, France) and “SuperScript III Reverse Transcriptase” (Invitrogen, France) according to the manufacturer's instructions. Quantitative RT-PCR uses a PCR reagent mix: SYBR Green Real-Time PCR Master Mix (ROCHE, France) with 0.4 μM of each nucleotide primer in a final volume of 25 μl. The reaction is performed in an LC480 System (ROCHE, France). The amplification program comprises a cycle at 95° C. for 1 min, followed by 40 cycles with denaturation at 95° C. for 15 s, a hybridization and amplification phase at 60° C. for 15 s, followed by a final elongation phase at 72° C. for 40 s.
The relative amount of each transcript is normalized to the average amount of expression of 5 so-called housekeeping genes (Glucuronidase β-GUSB, vacuolar ATPase-ATP6V0E1, H2A Histone Family, Member Y-H2AFY, Glucose-6-Phosphate Dehydrogenase-G6PD and “non-POU domain-containing, octamer-binding”-NONO).
The gene expression rate is measured by an absolute quantification analysis method using an algorithm based on the maximum of the second derivative developed by Roche.

[2] = system: eye; conditions: cited from earlier work
[3] = classification from the Solid Irritation Index
[4] = solid product applied pure in powder form, 30±2 mg, first of three index values
[5] = solid product applied pure in powder form, 30±2 mg, second of three index values
[6] = solid product applied pure in powder form, 30±2 mg, third of three index values
[7] = Table 6, list of solid chemicals studied
[8] = control chemicals and chemicals of FIG. 1 and FIG. 2

Row | SMILES | EIT prediction [1, 3] | Irritation INDEX [1, 4] | Irritation INDEX [1, 5] | Irritation INDEX [1, 6] | UN-GHS ([2]; Draize test classification) | GHS Class [2, 7] | eye irritation category as stated in text and figure legends [2, 8] | EIT prediction [1] | also measured
1 | CC(C)(O)CCC(C)(C)O | Cat 1 | 22 | 23 | 21 | Cat 1 | Cat 1 | category 1 |  | 
2 | O=C(Nc1ccc(Cl)cc1)Nc1ccc(Cl)c(Cl)c1 [1-(4-Chlorophenyl)-3-(3,4-dichlorophenyl) urea] | No Cat | 0 | 0 | 1 | No Cat | No cat |  |  | 
3 | Cc1cc(C)nc(Nc2ccccc2)n1 [2-Anilino-4,6-dimethylpyrimidine] |  |  |  |  |  |  |  | No Cat | Irritation INDEX ([1]; human, 30 min, 60 mg/cm2): 0; GHS Class ([2]; rabbit, in vivo): No cat; UN-GHS ([2]; rabbit, in vivo): No Cat; eye irritation category as stated in text and figure legends ([2]; rabbit, in vivo): No category
4 | CC(C)(C)c1cc(Cc2cc(C(C)(C)C)c(O)c(C(C)(C)C)c2)cc(C(C)(C)C)c1O [4,4′-Methylene bis-(2,6-di-tert-butylphenol)] |  |  |  |  | No Cat | No cat | No category | No Cat | 
5 | CCOc1ccc(Br)cc1 [4-Bromophenetol] | No Cat | 2 | 2 | 3 | No Cat | No cat | No category |  | 
6 | CC(C)(C)CC(C)(C)c1cc(Cc2cc(C(C)(C)CC(C)(C)C)cc(-n3nc4ccccc4n3)c2O)c(O)c(-n2nc3ccccc3n2)c1 [Methylene bis-benzotriazolyl tetramethylbutyl phenol] |  |  |  |  | No Cat |  |  | No Cat | 
7 | F[B-](F)(F)F.[K+] [Potassium tetrafluoroborate] | No Cat | 4 | 6 | 2 | No Cat | No cat | No category |  | 
8 | CC(CN1c2ccccc2Sc2ccccc21)N(C)C (centres unmarked) [Promethazine hydrochloride] |  |  |  |  | Cat 1 | Cat 1 | category 1 |  | EIT prediction ([1]; human, 30 min, 60 mg/cm2): Cat 1
9 | O=C([O-])C(=O)[O-].[Na+].[Na+] [Sodium oxalate] |  |  |  |  | Cat 1 | Cat 1 | category 1 | Cat 1 | 
10 | CCCCCCCCCCCCCCOC(=O)CCCCCCCCCCCCC [Tetradecyl tetradecanoate] |  |  |  |  |  |  | No category | No Cat | 
11 | CC(C)(O)C(=O)O [alpha-Hydroxyisobutyric acid] |  |  |  |  |  |  | category 1 |  | EIT prediction ([1]; human, 30 min, 60 mg/cm2): Cat 1
